# Experimental data as given in doi:10.1101/2021.06.15.448479v1 (biorxiv, 2021).
# T1: ACER3 (Homo sapiens, UniProt Q9NUN7)
# T1 sequence (Q9NUN7 1-267): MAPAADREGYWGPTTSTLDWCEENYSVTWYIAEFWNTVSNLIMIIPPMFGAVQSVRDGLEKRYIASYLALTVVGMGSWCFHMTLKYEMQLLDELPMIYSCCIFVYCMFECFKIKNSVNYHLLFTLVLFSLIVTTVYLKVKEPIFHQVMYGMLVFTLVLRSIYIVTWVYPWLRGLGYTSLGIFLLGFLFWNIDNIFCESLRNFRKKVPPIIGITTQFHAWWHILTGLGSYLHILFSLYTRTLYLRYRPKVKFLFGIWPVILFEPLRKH
# B1: ACER3 (Homo sapiens) (protein)
# chain: T1 sequence (Q9NUN7 1-267)
# Target: T1, ACER3
# Experiment: FRETcer1 hydrolysis, FRET, crude membranes of overexpressing Sf9 cells
# Format: biochemical
# Conditions: not given
row,IC50 [nM],Molecule
1,700,"CCCC(C)C(=O)Nc1ccc(Cl)c(C(F)(F)F)c1 (stereo not shown) [compound 02, Compound 02]"
2,710,"CC(C)[C@H]1CC[C@H](C(=O)Nc2ccc(Cl)c(Cl)c2)CC1 [compound 03, N-(3,4-dichlorophenyl)-4-isopropylcyclohexane-1-carboxamide]"

# Target: T1, ACER3
# Experiment: as above
# Format: cell-based
# Conditions: not given
# Remark: another data set of the same source
row,IC50 [nM],Molecule
1,1040 ± 350,O=C(Nc1cnn(C2CCC2)c1)N1CCC(c2cccc(F)c2)CC1 [Z2956776388]
2,1210 ± 740,CCCCNC(=O)Cc1noc(C(C)c2cccc(O)c2)n1 (stereo not shown) [Z3016340412]
3,5290 ± 2160,CCCC(C)NC(=O)c1ccc(Cl)c(Cl)c1 (stereo not shown) [NSC405020]
4,1310 ± 950,Cc1noc(CCNC(=O)N2CCC(c3ccc(F)c(F)c3)CC2)n1 [Z1124621112]

# Target: T1, ACER3
# Experiment: biochemical
# Conditions: not given
row,IC50 [nM],Molecule
1,9300,CCCCCCCCCCCCCC(=O)O [myristic acid]
2,2300,CCCCCCCC/C=C\CCCCCCCC(=O)O [oleic acid]
3,1500,CCCCC/C=C\C/C=C\CCCCCCCC(=O)O [linoleic acid]
4,12600,CCCCCCCCCCCCCCCC(=O)O [palmitic acid]
5,1900,CCCCCC/C=C\CCCCCCCC(=O)O [palmitoleic acid]
6,29300,CCCCCCCCCCCCCCCCCC(=O)O [stearic acid]

# Substrate: Cc1c(Br)c(=O)oc2cc3c(cc12)OC(CC(=O)NCCCCCC(=O)N[C@@H](CO)[C@H](O)/C=C/CCCCCCCCCNc1ccc([N+](=O)[O-])c2nonc12)O3
# Experiment: cells, lysate or membranes
# Conditions: detergent-purified ACER3
row,Molecule,Km [µM]
1,B1,10.76 ± 2.03
